Test results reported in patent publication US20230293411A1, “BIODEGRADABLE UV ABSORBERS” (BASF SE, priority 2020, published 2023).
Structures can show the parent of a compound that is named as a salt. Where two headings read alike, the source gives them in different places.

Columns and labels:
[1] = Specific extinction coefficient by UV/VIS spectrophotometry in water; type: physicochemical
[2] = Absorbance of croconic acid salts in formulation on PMMA plates; type: physicochemical; conditions: for Absorbance of the formulation: Formulations 1 and 2, 30 mg on PMMA plate, 15 minutes equilibration, 290-400 nm, FIG. 2, compared to Table 1
Description: The absorbance of Formulation 1 and 2 was determined as follows: […]
30 mg milligram of product were evenly spread on roughened PMMA plates (Heliosplate SB6, Helioscreen Creil/France) using a presaturated finger cot. After an equilibration time of 15 minutes transmission measurements between 290 and 400 nm were carried out using a spectrophotometer equipped with an integrating sphere (UV Transmittance Analyzer UV1000-S, Labsphere North Sutton/US).

[3] = Biodegradation, OECD 301F manometric respirometry test; conditions: inferred from components; the salt itself was not tested

Row | Compound | E1, 1 (specific extinction coefficient at λmax) ([1]; in water, d=1 cm, at λmax) | Maximum absorbance wavelength (λmax) ([1]; in water, optical pathlength d=1 cm, spectrum 250 nm to 500 nm) [nm] | Absorbance of the formulation [2] | Crystallization after water evaporation ([2]; in formulation on PMMA plate) | E1, 1 (specific extinction coefficient at λmax) [1] | Maximum absorbance wavelength (λmax) [1] [nm] | Biodegradability concluded from croconic acid and triethanolamine [3]
1 | O=c1c([O-])c([O-])c(=O)c1=O.[Na+].[Na+] [Comp. Compound 1, 4,5-Dihydroxy-4-cyclopentene-1,2,3-trione di-Sodium Salt] | 1996 | 364 | lower | crystallization |  |  | 
2 | O=c1c(O)c(O)c(=O)c1=O [Compound A, 4,5-Dihydroxy-4-cyclopentene-1,2,3-trione di-triethanolammonium Salt] |  |  | within the expected range |  | 844 | 364 | biodegradable
3 | O=c1c([O-])c([O-])c(=O)c1=O.[K+].[K+] [Comp. Compound 2, 4,5-Dihydroxy-4-cyclopentene-1,2,3-trione di-Potassium Salt] |  |  |  |  | 1704 | 364 | 
